≈ marks a conversion by molar mass, not a printed value. Read-outs that look alike come from different tables or passages of the source.
Columns and labels:
Assay type in all cases: cell-based
[1] = test system: visna virus (strain K184); assay: CPE inhibition test (established monolayer) for lentiviruses; conditions: Visna-maedi virus, read-out: MIC Visna Virus K184 strain in SCP cells
Protocol: 3 x 10⁴ sheep choroid plexus (SCP) cells were plated into individual wells of a 96 well microtitre plate in 100µl of Eagle's MEM with Hanks' salts containing 10% heat inactivated foetal calf serum (FCS). When monolayers had become established (after 1 or 2 days growth) they were washed with 200µl of maintenance medium (Eagle's MEM with Hanks' salts containing 0.5% FCS) and infected with 100µl of visna virus (strain K184) in maintenance medium (20 TCID₅₀/ml). Test samples were diluted with maintenance medium in further 96 well microtitre plates over the range 200-0.06µg/ml by 3-fold dilution steps. 100µl of the diluted samples was then transferred directly onto virus-infected monolayers (final concentration range therefore 100-0.03µg/ml) and incubated at 37°C in a humidified atmosphere containing, 5% CO₂ until virus-induced CPE was maximal in the untreated virus-infected controls (usually 12-14 days). The plates were fixed with formal saline and stained with crystal violet. Virus-induced CPE was then scored microscopically and the minimum concentration of sample giving complete protection of the cell monolayers (MIC) determined.

[2] = test system: herpes simplex virus 2 (HSV-2; strain MS); assay: Plaque reduction test for herpes simplex virus 2
Protocol: (§1) Cells (Vero or MRC-5) were grown to confluence in 24 well multi-dishes (well diameter = 1.5cm). The drained cell monolayers were each infected with approximately 50 infectious particles of herpes simplex virus 1 (HSV-1; strain HFEM) or herpes simplex virus 2 (HSV-2; strain MS) in 100µl of phosphate-buffered saline. The virus was absorbed for 1 hour at room temperature. After adsorption, residual inoculum was removed from each well and replaced with 0.5ml of Eagle's MEM containing 5% newborn calf serum and 0.9% agarose (A37). Once the agarose had set, dilutions of the test compound, which had been prepared in Eagle's MEM (containing 5% newborn calf serum), were added, each well receiving 0.5ml of liquid overlay. The test compound was diluted to give the following series of concentrations: 200, 60, 20, 6....0.06µg/ml; final concentrations in the assay ranged, therefore, between 100µg/ml and 0.03µg/ml. The infected cultures were incubated at 37°C in a humidified atmosphere of 5% CO₂ until plaques were clearly visible (2 or 3 days for Vero cells, usually […] for MRC-5 cells).
(§2) Cultures from 1 and 2 were fixed in formol saline, the agarose overlays were carefully washed off, and then the cell monolayers were stained with carbol fuchsin. A stereo microscope was used to count plaques. The IC₅₀ (concentration of drug which inhibits the number of plaques formed by 50% relative to the number of plaques observed in virus control monolayers) of the test compound was calculated. In addition, the monolayers were examined for evidence of drug-induced cytotoxicity; the minimum concentration at which cytotoxicity occurs was recorded.

[3] = test system: herpes simplex virus 1 (HSV-1; strain HFEM); assay: Plaque reduction test for herpes simplex virus 1; conditions: read-out: IC₅₀ Herpes Simplex virus Type 1 HFEM strain in Vero cells
Protocol: as §1, §2

[4] = test system: varicella zoster virus (VZV; Ellen strain); assay: Plaque reduction test for varicella zoster virus
Protocol: MRC-5 cells were grown to confluence in 24 well multi-dishes (well diameter = 1.5cm). The drained cell monolayers were each infected with approximately 50 infectious particles of varicella zoster virus (VZV; Ellen strain) in 100µl of phosphate-buffered saline. The virus was adsorbed for 1 hour at room temperature. After adsorption, residual inoculum was removed from each well and replaced with 0.5ml of Eagles's MEM containing 5% […] foetal calf serum and 0.9% agarose (A37). Once the agarose had set, dilutions of the test compound, which had been prepared in Eagle's MEM (containing 5% heat-inactivated foetal calf serum), were added, each well receiving 0.5ml of liquid overlay. The test compound was diluted to give the following series of concentrations: 200, 60, 20, 6....0.06µg/ml; final concentrations in the assay ranged, therefore, between 100µg/ml and 0.03µg/ml. The infected cultures were incubated at 37°C in a humidified atmosphere of 5% CO₂ until plaques were clearly visible (5 or 6 days).
as §2

[5] = Human alphaherpesvirus 2, MRC5, read-out: IC₅₀ Herpes Simplex virus Type 2 MS strain in MRC-5 cells
[6] = Human alphaherpesvirus 3, MRC5, read-out: IC₅₀ Varicella Zoster virus Ellen strain in MRC-5 cells
[7] = minimum concentration giving complete protection of the cell monolayers from virus-induced CPE, sheep choroid plexus (SCP) cells
[8] = Human alphaherpesvirus 2, MRC5, plaque reduction, MS strain, MRC-5 cells, read-out: IC₅₀ Herpes Simplex virus Type 2 MS strain in MRC-5 cells
[9] = Human alphaherpesvirus 1, plaque reduction, HFEM strain, Vero cells
[10] = Human alphaherpesvirus 3, MRC5, plaque reduction, Ellen strain, MRC-5 cells, read-out: IC₅₀ Varicella Zoster virus Ellen strain in MRC-5 cells

Compound | MIC ([1]; in Ovis aries) [µg/mL] | IC50 [2, 5] [µg/mL] | IC50 ([3]; Human alphaherpesvirus 1, Vero) [µg/mL] | IC50 [4, 6] [µg/mL] | MIC [1, 7] [µg/mL] | IC50 [2, 8] [µg/mL] | IC50 [3, 9] [µg/mL] | IC50 [4, 10] [µg/mL]
CCOP(=O)(COCCOn1cnc2c(N)ncnc21)OCC [Example 1, 9-[2-(Diethoxyphosphorylmethoxy)ethoxy]adenine] | 100 (≈ 290 µM) | > 100 | > 100 | > 100 | – | – | – | –
Nc1ncnc2c1ncn2OCCOCP(=O)(O)O [Example 2, 9-[2-(Phosphonemethoxy)ethoxy]adenine] | – | – | – | – | 3 (≈ 10.4 µM) | 69 (≈ 239 µM) | > 100 | 80 (≈ 277 µM)
CCOP(=O)(COCCOn1cnc2c(=O)[nH]c(N)nc21)OCC [Example 3, 9-[2-(Diethoxyphosphorylmethoxy)ethoxy]guanine] | 10 (≈ 27.7 µM) | > 100 | > 100 | 51 (≈ 141 µM) | – | – | – | –
Nc1nc2c(ncn2OCCOCP(=O)(O)O)c(=O)[nH]1 [Example 4, 9-[2-(Phosphonomethoxy)ethoxy]guanine] | – | – | – | – | < 0.003 | 0.08 (≈ 0.262 µM) | 1.1 (≈ 3.6 µM) | 0.06 (≈ 0.197 µM)
CCOP(=O)(O)COCCOn1cnc2c(=O)[nH]c(N)nc21 [Example 5, 9-[2-[Ethoxy(hydroxy)phosphorylmethoxy)ethoxy]guanine] | – | – | 59 (≈ 177 µM) | < 3 | – | – | – | –
Nc1ncnc2c1ncn2OCC(CO)OCP(=O)(O)O (centres unmarked) [Example 7, 9-[3-Hydroxy-2-(phosphonomethoxy)propoxy]adenine] | – | – | – | – | 0.3 (≈ 0.94 µM) | > 100 | > 100 | 66 (≈ 207 µM)
CCOP(=O)(O)COC(CO)COn1cnc2c(N)ncnc21 (centres unmarked) [Example 8, 9-[2-[ethoxy(hydroxy)phosphorylmethoxy]-3-hydroxypropoxy]adenine] | 1 (≈ 2.88 µM) | > 100 | > 100 | 60 (≈ 173 µM) | – | – | – | –
Nc1nc2c(ncn2OCC(CO)OCP(=O)(O)O)c(=O)[nH]1 (centres unmarked) [Example 10, 9-[3-Hydroxy-2-(phosphonomethoxy)propoxy]guanine] | – | – | – | – | < 0.003 | 7.3 (≈ 21.8 µM) | 17 (≈ 50.7 µM) | 21 (≈ 62.6 µM)
CCOP(=O)(COCCOn1cnc2c(N)nc(N)nc21)OCC [Example 11, 2,6-Diamino-9-[2-(diethoxyphosphorylmethoxy)ethoxy]purine] | 30 (≈ 83.3 µM) | – | > 100 | > 100 | – | – | – | –
Nc1nc(N)c2ncn(OCCOCP(=O)(O)O)c2n1 [Example 12, 2,6-Diamino-9-[2-phosphonomethoxy)ethoxy]purine] | – | – | – | – | 0.3 (≈ 0.986 µM) | – | 24 (≈ 78.9 µM) | < 3
Nc1nc(Cl)c2ncn(OCCOCP(=O)(O)O)c2n1 [Example 13, 2-Amino-6-chloro-9-[2-(phosphonomethoxy)ethoxy]purine] | – | – | – | – | < 0.03 | – | 3.7 (≈ 11.4 µM) | 0.5 (≈ 1.54 µM)
COc1nc(N)nc2c1ncn2OCCOCP(=O)(O)O [Example 14, 2-Amino-6-methoxy-9-[2-(phosphonomethoxy)ethoxy]purine] | – | – | – | – | < 0.03 | – | < 3 | < 0.03
Nc1nc2c(ncn2OCC2COP(=O)(O)CO2)c(=O)[nH]1 (centres unmarked) [Example 15, 9-[(2-Hydroxy-2-oxo-1,4,2-dioxaphosphorinan-5-yl)methoxy]guanine] | – | – | – | – | – | – | 29 (≈ 91.4 µM) | < 3

Source: patent publication EP0319228A2, “Novel compounds” (BEECHAM GROUP PLC, priority 1987, dated 1989)
